In brackets after ≈: the same amount, converted by molar mass.
How the values were obtained:
[1] = tested on: human nonsmall-cell lung cancer cell H460; assay: In vitro anti-tumor cell activity (MTT), H460; type: cell-based; details: H460 cells, MTT, 72 h, Bliss method; for IC50: Homo sapiens, NCI-H460, read-out: H460 IC50
Experimental: (§1) The digested cell solution was poured into a centrifuge tube, to which a culture media was added to stop the digestion. The centrifuge tube was centrifuged at 800 r/min for 10 min, the supernatant was removed gently and then 5 mL of the culture media was added. The cells were pipetted and mixed homogeneously. 10 μL cell suspension was taken into a cell counting plate for counting, wherein the cell concentration was adjusted to 10^4 cells/well. To each well of a 96-well plate, except for A1 well as blank control, was added 100 μL of the cell suspension. The 96-well plate was placed in an incubator and cultivated for 24 h. […] The 96-well plate was placed in an incubator and cultivated for 72 h. (3) The culture media containing the compounds in the 96-well plate was removed, and the cells were washed with phosphate buffered solution (PBS) twice. To each well was added 100 μL MTT (tetrazole) (0.5 mg/mL), after placing the plate in an incubator to incubate for 4 h, the MTT solution was removed and 100 μL dimethyl sulfoxide was added. The reaction product of survival cells with MTT, i.e. formazan, was dissolved completely by oscillation on a magnetic oscillator, and then placed into a microplate reader to measure the results, and the IC50 values of compounds could be deduced by Bliss method.

[2] = tested on: human gastric cancer cell MKN-45; assay: In vitro anti-tumor cell activity (MTT), MKN-45; type: cell-based; details: MKN-45 cells, MTT, 72 h, Bliss method; for IC50: Homo sapiens, read-out: MKN-45 IC50
Experimental: as §1

[3] = tested on: human colon cancer cell HT-29; assay: In vitro anti-tumor cell activity (MTT), HT-29; type: cell-based; details: HT-29 cells, MTT, 72 h, Bliss method; for IC50: Homo sapiens, read-out: HT-29 IC50
Experimental: as §1

[4] = tested on: human hepatoma carcinoma cell line SMMC-7721; assay: In vitro anti-tumor cell activity (MTT), SMMC-7721; type: cell-based; details: SMMC-7721 cells, MTT, 72 h, Bliss method; for IC50: Homo sapiens, read-out: SMMC-7721 IC50
Experimental: as §1

[5] = biological target: T1, c-Met kinase (His-tagged recombinant human Met (amino acids 974-end)) (Homo sapiens, UniProt P08581); assay: c-Met Enzyme Activity Inhibition Assay (ELISA); type: biochemical; details: 50 pM c-Met, 5 μM ATP, room temperature 20 min; for IC50: read-out: IC50 for inhibiting c-Met kinase (converted)
T1 construct: His-tagged recombinant human Met (amino acids 974-end); His
Experimental: c-Met Enzyme Activity Inhibition Assay
The assay for the determination of c-Met kinase activity is based on an enzyme linked immunosorbant assay (ELISA). A compound of Formula I, 50 pM c-Met (His-tagged recombinant human Met (amino acids 974-end), expressed by baculovirus), and 5 μM ATP in an assay buffer (25 mM MOPS, pH 7.4, 5 mM MgCl2, […], 100 μM sodium orthovanadate, 0.01% Triton X-100, 1 mM DTT, final DMSO concentration 1% (v/v)) were incubated on a plate coated with 0.25 mg/mL POT at room temperature for 20 min. The reaction mixture was removed by washing and the phosphorylated polymer substrate was detected with 0.2 μg/mL phosphotyrosine specific monoclonal antibody (PY20) conjugated to horseradish peroxidase (HRP). After the addition of 1M phosphoric acid to stop the development, the chromogenic substrate (TMB) color was quantitated by spectrophotometry at 450 nm.

T1 sequence (P08581 956-1390): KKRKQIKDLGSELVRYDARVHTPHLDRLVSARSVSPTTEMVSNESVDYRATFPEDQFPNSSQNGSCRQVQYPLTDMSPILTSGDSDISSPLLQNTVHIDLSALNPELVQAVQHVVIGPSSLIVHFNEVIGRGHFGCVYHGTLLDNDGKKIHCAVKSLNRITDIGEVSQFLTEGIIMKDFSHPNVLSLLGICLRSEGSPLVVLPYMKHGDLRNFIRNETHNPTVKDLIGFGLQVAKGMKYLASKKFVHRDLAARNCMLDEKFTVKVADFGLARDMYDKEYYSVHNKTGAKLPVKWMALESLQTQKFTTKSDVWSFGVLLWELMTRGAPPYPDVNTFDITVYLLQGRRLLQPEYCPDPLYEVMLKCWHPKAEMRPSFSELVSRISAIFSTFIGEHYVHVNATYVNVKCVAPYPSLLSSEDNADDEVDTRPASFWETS

Molecule | H460 IC50 [1] [µg/mL] | MKN-45 IC50 [2] [µg/mL] | HT-29 IC50 [3] [µg/mL] | SMMC-7721 IC50 [4] [µg/mL] | IC50 for inhibiting c-Met kinase [5] [µg/mL] | IC50 [1] [µg/mL] | IC50 [2] [µg/mL] | IC50 [3] [µg/mL] | IC50 [4] [µg/mL] | IC50 [5] [nM]
N-[3-fluoro-4-[6-methoxy-7-[3-(4-methyl-1-piperazinyl)propyloxy]quinolin]-4-oxy]phenyl]-2-(3-trifluoromethylphenyl)-4-benzyl-3,5-dicarbonyl-2,3,4,5-tetrahydro-1,2,4-triazine-6-carboxamide [Example 47] | 1.1 | 0.4 | 0.09 | 3.7 | 5.92 |  |  |  |  | 
COc1cc2c(Oc3ccc(NC(=O)c4nn(-c5ccc(Cl)cc5)c(=O)n(C)c4=O)cc3F)ccnc2cc1OCCCN1CCCCC1 [Example 26, N-[3-fluoro-4-[6-methoxy-7-[3-(1-piperidinyl)propyloxy]quinolin-4-oxy]phenyl]-2-(4-chlorophenyl)-4-methyl-3,5-dioxa-2,3,4,5-tetrahydro-1,2,4-triazine-6-carboxamide;] | 0.15 | 0.011 | 0.08 | 0.33 | 0.71 |  |  |  |  | 
N-[3-fluoro-4-[7-methoxy-6-[3-(4-morpholinyl)propyloxy]quinolin-4-oxy]phenyl]-2-(3-trifluoromethylphenyl)-4-butyl-3,5-dicarbonyl-2,3,4,5-tetrahydro-1,2,4-triazine-6-carboxamide [Example 34] | 0.028 | 0.013 | 0.11 | 0.18 | 0.017 |  |  |  |  | 
N-[3-fluoro-4-[6-methoxy-7-[3-(1-piperidinyl)propyloxy]quinolin-4-oxy]phenyl]-2-(3-trifluoromethylphenyl)-4-methyl-3,5-dicarbonyl-2,3,4,5-tetrahydro-1,2,4-triazine-6-carboxamide [Example 22] | 0.26 | 0.006 | 0.12 | 0.18 | 0.57 |  |  |  |  | 
N-[3-fluoro-4-[6-methoxy-7-[3-(4-methyl-1-piperidinyl)propyloxy]quinolin-4-oxy]phenyl]-2-(4-methylphenyl)-4-methyl-3,5-dicarbonyl-2,3,4,5-tetrahydro-1,2,4-triazine-6-carboxamide [Example 14] | 0.15 | 2.1 | 0.11 | 0.88 | 0.088 |  |  |  |  | 
N-[3-fluoro-4-[7-methoxy-6-[3-(4-methyl-1-piperidinyl)propyloxy]quinolin-4-oxy]phenyl]-2-(2-trifluoromethylphenyl)-4-butyl-3,5-dicarbonyl-2,3,4,5-tetrahydro-1,2,4-triazine-6-carboxamide [Example 33] | 0.15 | 0.09 | 0.18 | 0.43 | 0.27 |  |  |  |  | 
N-[3-fluoro-4-[6-methoxy-7-[3-(1-piperidinyl)propyloxy]quinolin-4-oxy]phenyl]-2-phenyl-4-methyl-3,5-dioxo-2,3,4,5-tetrahydro-1,2,4-triazine-6-carboxamide [Example 2] | 0.072 | 0.032 | 0.18 | 0.20 | 0.12 |  |  |  |  | 
N-[3-fluoro-4-[7-methoxy-6-[3-(4-methyl-1-piperidinyl)propyloxy]quinolin-4-oxy]phenyl]-2-phenyl-4-butyl-3,5-dioxo-2,3,4,5-tetrahydro-1,2,4-triazine-6-carboxamide [Example 28] | 0.25 | 0.077 | 0.31 | 0.44 | 0.31 |  |  |  |  | 
N-[3-fluoro-4-[7-methoxy-6-[3-(1-piperidinyl)propyloxy]quinolin-4-oxy]phenyl]-2-(2-trifluoromethylphenyl)-4-allyl-3,5-dicarbonyl-2,3,4,5-tetrahydro-1,2,4-triazine-6-carboxamide [Example 37] | 1.7 | 0.12 | 0.88 | 2.3 | 3.7 |  |  |  |  | 
COc1cc2c(Oc3ccc(NC(=O)c4nn(-c5ccc(F)c(F)c5)c(=O)n(C)c4=O)cc3F)ccnc2cc1OCCCN1CCCCC1 [Example 17, N-[3-fluoro-4-[6-methoxy-7-[3-(1-piperidinyl)propyloxy]quinolin-4-oxy]phenyl]-2-(3,4-difluorophenyl)-4-methyl-3,5-dioxo-2,3,4,5-tetrahydro-1,2,4-triazine-6-carboxamide] |  |  |  |  |  | 0.22 (≈ 0.319 µM) | 0.027 (≈ 0.0391 µM) | 0.3 (≈ 0.434 µM) | 0.19 (≈ 0.275 µM) | 420
N-[3-fluoro-4-[6-methoxy-7-[3-(4-morpholinyl)propyloxy]quinolin-4-oxy]phenyl]-2-(2-fluorophenyl)-4-methyl-3,5-dicarbonyl-2,3,4,5-tetrahydro-1,2,4-triazine-6-carboxamide [Example 23] | 0.57 | 0.0028 | 0.35 | 0.44 | 0.82 |  |  |  |  | 
COc1cc2c(Oc3ccc(NC(=O)c4nn(-c5ccc(F)cc5)c(=O)n(C)c4=O)cc3F)ccnc2cc1OCCCN1CCN(C)CC1 [Example 10, N-[3-fluoro-4-[6-methoxy-7-[3-(4-methyl-1-piperazinyl)propyloxy]quinolin-4-oxy]phenyl]-2-(4-fluorophenyl)-4-methyl-3,5-dioxo-2,3,4,5-tetrahydro-1,2,4-triazine-6-carboxamide] |  |  |  |  |  | 0.0081 (≈ 0.0118 µM) | 0.0065 (≈ 0.00945 µM) | 0.093 (≈ 0.135 µM) | 0.11 (≈ 0.16 µM) | 106
COc1cc2c(Oc3ccc(NC(=O)c4nn(-c5ccc(F)cc5)c(=O)n(C)c4=O)cc3F)ccnc2cc1OCCCN1CCCC1 [Example 6, N-[3-fluoro-4-[6-methoxy-7-[3-(1-pyrrolidyl]propyloxy]quinolin-4-oxy]phenyl]-2-(4-fluorophenyl)-4-methyl-3,5-dioxo-2,3,4,5-tetrahydro-1,2,4-triazine-6-carboxamide] |  |  |  |  |  | 0.032 (≈ 0.0486 µM) | 0.021 (≈ 0.0319 µM) | 0.06 (≈ 0.0911 µM) | 0.11 (≈ 0.167 µM) | 48.6
N-[3-fluoro-4-[6-methoxy-7-(3-(4-methyl-1-piperazinyl)propyloxy)quinolin-4-oxy]phenyl]-2-(3-trifluoromethylphenyl)-4-methyl-3,5-dicarbamoyl-2,3,4,5-tetrahydro-1,2,4-triazine-6-carboxamide [Example 25] | 0.52 | 0.014 | 0.05 | 0.07 | 1.01 |  |  |  |  | 
COc1cc2c(Oc3ccc(NC(=O)c4nn(-c5ccccc5)c(=O)n(C)c4=O)cc3F)ccnc2cc1OCCCN1CCOCC1 [Example 3, N-[3-fluoro-4-[6-methoxy-7-[3-(4-morpholinyl)propyloxy]quinolin-4-oxy]phenyl]-2-phenyl-4-methyl-3,5-dioxo-2,3,4,5-tetrahydro-1,2,4-triazine-6-carboxamide] |  |  |  |  |  | 0.17 (≈ 0.259 µM) | 0.059 (≈ 0.0898 µM) | 0.14 (≈ 0.213 µM) | 0.1 (≈ 0.152 µM) | 88.3
N-[3-fluoro-4-[6-methoxy-7-[3-(1-piperidinyl)propyloxy]quinolin]-4-oxy]phenyl]-2-(2,4-difluorophenyl)-4-benzyl-3,5-dicarbonyl-2,3,4,5-tetrahydro-1,2,4-triazine-6-carboxamide [Example 44] | 0.99 | 0.13 | 0.57 | 2.5 | 6.1 |  |  |  |  | 

Source: patent US8993566B2, “Quinoline compound composing 1,2,4-triazine-dione and use thereof” (Wuhan Shengyun Biopharma Co., Ltd., priority 2012, dated 2015)
